From PubChem BioAssay AID248 (DTP/NCI, 2004)
Several values for one entry are separate records, joined by “and”; a condition that tells them apart may be missing. Identical values can stand only once. Toxic doses and inconclusive results are not listed. No stated cut-off is given here; in the data, active means T/C of 150% or more; inactive means T/C below 125%.

Test system: L1210 leukemia ip in BDF1 mice, survival T/C
Experiment: NCI In Vivo Anticancer Drug Screen. Data for tumor model L1210 Leukemia (intraperitoneal) in B6D2F1 (BDF1) mice
Conditions: endpoint: mean survival time, higher = longer survival
How it was run: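 Antitumor effect is assessed in tumor-bearing animals. Survival in the compound arm is compared with a vehicle-dosed control arm and expressed as their quotient.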

[1] = dose: 100.0 mg/kg/injection, schedule: Q01DX009 (ip), vehicle: saline with Tween-80
[2] = dose: 100.0 mg/kg/injection, schedule: Q04DX003 (ip), vehicle: saline
[3] = dose: 200.0 mg/kg/injection, schedule: Q01DX009 (ip), vehicle: saline with Tween-80
[4] = dose: 200.0 mg/kg/injection, schedule: Q04DX003 (ip), vehicle: saline
[5] = dose: 400.0 mg/kg/injection, schedule: Q01DX009 (ip), vehicle: saline with Tween-80
[6] = dose: 50.0 mg/kg/injection, schedule: Q01DX001 (ip), vehicle: carboxymethylcellulose (CMC)
[7] = dose: 100.0 mg/kg/injection, schedule: Q01DX001 (ip), vehicle: carboxymethylcellulose (CMC)
[8] = dose: 200.0 mg/kg/injection, schedule: Q01DX001 (ip), vehicle: carboxymethylcellulose (CMC)
[9] = dose: 100.0 mg/kg/injection, schedule: Q01DX009 (ip), vehicle: carboxymethylcellulose (CMC)
[10] = dose: 100.0 mg/kg/injection, schedule: Q04DX002 (ip), vehicle: carboxymethylcellulose (CMC)
[11] = dose: 100.0 mg/kg/injection, schedule: Q04DX003 (ip), vehicle: carboxymethylcellulose (CMC)
[12] = dose: 200.0 mg/kg/injection, schedule: Q01DX009 (ip), vehicle: carboxymethylcellulose (CMC)
[13] = dose: 200.0 mg/kg/injection, schedule: Q04DX002 (ip), vehicle: carboxymethylcellulose (CMC)
[14] = dose: 200.0 mg/kg/injection, schedule: Q04DX003 (ip), vehicle: carboxymethylcellulose (CMC)
[15] = dose: 400.0 mg/kg/injection, schedule: Q01DX009 (ip), vehicle: carboxymethylcellulose (CMC)

Measured: T/C

O=c1[nH]c(NC2OC(CO)C(O)C2O)nc2c1ncn2C1(CO)CC(O)(CO)O1 (stereo not given)
inactive: dose: 100.0 mg/kg/injection, schedule: Q01DX005 (ip), vehicle: saline 93 % of control | dose: 200.0 mg/kg/injection, schedule: Q01DX005 (ip), vehicle: saline 98 % of control

O=C(O)C1CC2C=CC1C2 (stereo not given)
inactive: [1] 101 % of control | [2] 102 % of control | [3] 101 % of control | [4] 94 % of control | [5] 102 % of control | dose: 400.0 mg/kg/injection, schedule: Q04DX003 (ip), vehicle: saline 105 % of control

CC1CC(C)OS(=O)O1 (stereo not given)
inactive: dose: 44.0 mg/kg/injection, schedule: Q01DX Z (ip), vehicle: saline 104 % of control | dose: 66.0 mg/kg/injection, schedule: Q01DX Z (ip), vehicle: saline 102 % of control | dose: 75.0 mg/kg/injection, schedule: Q01DX001 (ip), vehicle: acetone 103 % of control | dose: 100.0 mg/kg/injection, schedule: Q01DX Z (ip), vehicle: saline 91 % of control | dose: 150.0 mg/kg/injection, schedule: Q01DX001 (ip), vehicle: acetone 103 % of control | dose: 300.0 mg/kg/injection, schedule: Q01DX001 (ip), vehicle: acetone 101 % of control

C=CS(=O)(=O)c1ccc(C)cc1
inactive: dose: 25.0 mg/kg/injection, schedule: Q04DX002 (ip), vehicle: Klucel (hydroxypropylcellulose) (HPC) 104 % of control | dose: 50.0 mg/kg/injection, schedule: Q04DX002 (ip), vehicle: Klucel (hydroxypropylcellulose) (HPC) 110 % of control | dose: 100.0 mg/kg/injection, schedule: Q04DX002 (ip), vehicle: Klucel (hydroxypropylcellulose) (HPC) 96 % of control and 104 % of control

Cc1ccc(NC(=O)Nc2cccc3ccccc23)c(C)c1
inactive: dose: 100.0 mg/kg/injection, schedule: Q04DX003 (ip), vehicle: Klucel (hydroxypropylcellulose) (HPC) 91 % of control | dose: 200.0 mg/kg/injection, schedule: Q01DX009 (ip), vehicle: Klucel (hydroxypropylcellulose) (HPC) 88 % of control | dose: 200.0 mg/kg/injection, schedule: Q04DX003 (ip), vehicle: Klucel (hydroxypropylcellulose) (HPC) 95 % of control | dose: 400.0 mg/kg/injection, schedule: Q01DX009 (ip), vehicle: Klucel (hydroxypropylcellulose) (HPC) 92 % of control | dose: 400.0 mg/kg/injection, schedule: Q04DX003 (ip), vehicle: Klucel (hydroxypropylcellulose) (HPC) 91 % of control

Nc1nc2c(nc(NO)n2C2OC(CO)C(O)C2O)c(=O)[nH]1 (stereo not given)
inactive: [6] 95 % of control | [7] 110 % of control | [8] 101 % of control

CCC(Cl)COP(=O)(OCC(Cl)CC)C(CC)CCl (stereo not given)
inactive: [7] 93 % of control | [9] 98 % of control and 91 % of control | [10] 94 % of control and 95 % of control | [11] 101 % of control | [8] 96 % of control | [12] 94 % of control and 103 % of control | [13] 95 % of control and 102 % of control | [14] 96 % of control | dose: 400.0 mg/kg/injection, schedule: Q01DX001 (ip), vehicle: carboxymethylcellulose (CMC) 96 % of control | [15] 105 % of control and 106 % of control | dose: 400.0 mg/kg/injection, schedule: Q04DX002 (ip), vehicle: carboxymethylcellulose (CMC) 94 % of control and 95 % of control | dose: 400.0 mg/kg/injection, schedule: Q04DX003 (ip), vehicle: carboxymethylcellulose (CMC) 98 % of control

O=C(O)CCCCCNCc1cc(=O)[nH]c(=O)[nH]1
inactive: [2] 97 % of control | [4] 101 % of control

CC[C@]12CN3CCc4c([nH]c5ccccc45)[C@@](C(=O)OC)(c4cc5c(cc4OC)N(C)[C@H]4[C@@](O)(C(=O)OC)[C@H](OC(C)=O)[C@]6(CC)C=CCN7CC[C@]54[C@@H]76)CC(C3)[C@H]1O2 (stereo not given in full)
inactive: dose: 0.37 mg/kg/injection, schedule: Q01DX009 (ip), vehicle: saline 108 % of control | dose: 0.75 mg/kg/injection, schedule: Q01DX009 (ip), vehicle: Klucel (hydroxypropylcellulose) (HPC) 100 % of control | dose: 1.5 mg/kg/injection, schedule: Q01DX002 (ip), vehicle: saline 108 % of control | dose: 1.5 mg/kg/injection, schedule: Q01DX009 (ip), vehicle: Klucel (hydroxypropylcellulose) (HPC) 105 % of control | dose: 1.5 mg/kg/injection, schedule: Q01DX009 (ip), vehicle: saline 97 % of control and 108 % of control and 114 % of control | dose: 3.0 mg/kg/injection, schedule: Q01DX002 (ip), vehicle: saline 115 % of control | dose: 3.0 mg/kg/injection, schedule: Q01DX009 (ip), vehicle: Klucel (hydroxypropylcellulose) (HPC) 110 % of control | dose: 6.0 mg/kg/injection, schedule: Q01DX002 (ip), vehicle: saline 117 % of control | dose: 6.0 mg/kg/injection, schedule: Q01DX009 (ip), vehicle: Klucel (hydroxypropylcellulose) (HPC) 107 % of control | dose: 12.0 mg/kg/injection, schedule: Q01DX009 (ip), vehicle: Klucel (hydroxypropylcellulose) (HPC) 115 % of control | dose: 12.0 mg/kg/injection, schedule: Q01DX009 (ip), vehicle: saline 95 % of control | dose: 16.5 mg/kg/injection, schedule: Q04DX003 (ip), vehicle: saline with Tween-80 106 % of control | dose: 37.5 mg/kg/injection, schedule: Q04DX003 (ip), vehicle: saline 94 % of control

O=C(O)c1ccc(N=Cc2ccc(N(CCCl)CCCl)cc2)cc1O
inactive: [7] 95 % of control | [8] 101 % of control

C=C1C(=O)O[C@H]2C[C@@]3(C)[C@H](O)CCC(=C)[C@@H]3[C@@H](OC(C)=O)[C@H]12
inactive: dose: 25.0 mg/kg/injection, schedule: Q04DX002 (ip), vehicle: saline with Tween-80 86 % of control | dose: 50.0 mg/kg/injection, schedule: Q04DX002 (ip), vehicle: saline with Tween-80 93 % of control | dose: 100.0 mg/kg/injection, schedule: Q04DX002 (ip), vehicle: saline with Tween-80 108 % of control and 90 % of control

COC(=O)C1=NNCC1C(=O)N1Cc2cc3ccccc3nc2C1 (stereo not given)
inactive: dose: 10.0 mg/kg/injection, schedule: Q04DX003 (ip), vehicle: saline 103 % of control | dose: 20.0 mg/kg/injection, schedule: Q04DX003 (ip), vehicle: saline 99 % of control | dose: 40.0 mg/kg/injection, schedule: Q04DX003 (ip), vehicle: saline 103 % of control | dose: 80.0 mg/kg/injection, schedule: Q04DX003 (ip), vehicle: saline 92 % of control | dose: 160.0 mg/kg/injection, schedule: Q04DX003 (ip), vehicle: saline 97 % of control

O=C(Nc1ccc(F)cc1)Nc1cccc(O)c1
inactive: [6] 106 % of control | dose: 50.0 mg/kg/injection, schedule: Q04DX002 (ip), vehicle: carboxymethylcellulose (CMC) 97 % of control and 98 % of control | dose: 50.0 mg/kg/injection, schedule: Q04DX003 (ip), vehicle: carboxymethylcellulose (CMC) 101 % of control | [7] 103 % of control | [9] 92 % of control and 101 % of control | [10] 94 % of control and 95 % of control and 98 % of control | [11] 102 % of control | [8] 96 % of control | [12] 98 % of control | [13] 95 % of control and 101 % of control and 90 % of control | [14] 98 % of control | [15] 98 % of control and 103 % of control

Brc1ccc(N(Cc2ccccc2)Cc2ccccc2)cc1
inactive: [1] 100 % of control | [3] 86 % of control | [5] 89 % of control
